{"source": "patent US7098372B1", "about": "“Pharmaceutical compositions and methods of using secreted frizzled related protein” (Wyeth, priority 1999, dated 2006)", "assay_type_in_all_cases": "cell-based, human", "key": {"hOB-01-C1-PS-09 cells": {"tested_on": "hOB-01-C1-PS-09 cells", "experiment": "Hepatocyte growth factor (HGF) secretion by hOB-01-C1-PS-09 cells", "conditions": "39° C."}, "hOB-03-C5 cells [1]": {"tested_on": "hOB-03-C5 cells", "experiment": "Apoptosis by flow cytometry using annexin V-FITC and propidium iodide", "description": "Apoptosis was measured by flow cytometry using annexin V-FITC.\n(§1) The hypothesis that up-regulation of SFRP-1/FRP-1/SARP-2 gene expression accelerates hOB cell death, while down-regulation of SFRP-1/FRP-1/SARP-2 gene expression suppresses cell death, was next examined. […] The next day, the 6-well plates were rinsed with PBS, placed in BSA-medium, and treated at 39° C. in the absence or presence of either 100 nM PGE2 (in order to up-regulate SFRP-1/FRP-1/SARP-2 steady-state mRNA levels; panels A & B), or 0.01–1.0 nM TGF-β1 (in order to down-regulate SFRP-1/FRP-1/SARP-2 message levels; panel C). Incubating cells in serum-free medium is a common method to induce apoptosis (Melkonyan et al. 1997 Proc. Natl. Acad. Sci. USA 94: 13636–13641), and the hOB-03-C5, hOB-03-CE6 and hOB-01-C1 cell lines all stopped dividing and gradually died under these conditions. […] In contrast, treatment of the hOB-01-C1 cells with TGF-β1 increased cell viability about 2-fold in a dose-dependent manner. […] This observation was consistent with the induction of apoptosis, which is known to result in cytoplasmic blebbing, the loss of water and a decrease in cell volume (Mesner and Kaufmann 1997 in Advances in Pharmacology, vol. 41, pp. 57–88). […] Finally, treatment of the hOB-03-C5 cells with PGE2 increased annexin V (a specific marker for apoptosis) binding to the cell as measured by flow cytometry (FIG. 11)."}, "hOB-03-C5 cells [2]": {"tested_on": "hOB-03-C5 cells", "experiment": "Generation of histone-associated DNA fragments", "description": "as §1"}, "β-catenin": {"tested_on": "β-catenin", "experiment": "Western blot analysis for β-catenin", "conditions": "hOB-03-CE6 cells, 100 nM, 24 hr", "description": "FIG. 15 is an autoradiogram of a Western blot of whole cell extracts isolated from hOB-03-CE6 cells treated with either control or PGE2 for 24 hr. The immunoblot was probed with a monoclonal antibody to β-catenin, which has a molecular weight of 92,000.\nIn order to determine if the up-regulation of SFRP-1/FRP-1/SARP-2 gene expression results in an antagonism of the Wnt signaling pathway, hOB-03-CE6 cells were treated with PGE2 and the resulting cells probed with β-catenin monoclonal antibody. Overexpression of Wnt proteins in cells up-regulates a signaling protein known as β-catenin (reviewed in Moon et al. 1997 Cell 88: 725–728; Barth et al. 1997 Curr. Opin. Cell Biol. 9: 683–690; and Nusse 1997 Cell 89: 321–323). […] Therefore, hOB-03-CE6 cells were plated and treated with PGE2 as described in Example 1, except that total cellular protein was extracted and a Western blot analysis for β-catenin was performed using a monoclonal antibody to the protein (Transduction Laboratories) as previously described (Bodine et al. 1996 Endocrinology 137: 4592–4604; Melkonyan et al. 1997 Proc. Natl. Acad. Sci. USA 94: 13636–13641). […] Both human and rat SFRP-1/FRP-1/SARP-2, as well as human Frzb-1/FrzB/Fritz, suppressed TCF-luciferase activity in the hOB cells."}}}
{"compound": "human transforming growth factor-β1 [TGF-β1]", "values": [{"measurement": "HGF secretion", "setting": "hOB-01-C1-PS-09 cells", "result": "dose-dependent decrease"}]}
{"compound": "CCCCC[C@H](O)/C=C/[C@H]1[C@H](O)CC(=O)[C@@H]1C/C=C\\CCCC(=O)O", "note": "[PGE2, prostaglandin E2]", "values": [{"measurement": "annexin V binding to the cell", "setting": "hOB-03-C5 cells [1]", "result": "increased"}, {"measurement": "number of apoptotic cells (annexin V but not propidium iodide)", "setting": "hOB-03-C5 cells [1]; increasing concentrations", "result": "increases"}, {"measurement": "number of necrotic cells (annexin V and propidium iodide)", "setting": "hOB-03-C5 cells [1]; increasing concentrations", "result": "increases"}, {"measurement": "number of viable cells (no annexin V or propidium iodide staining)", "setting": "hOB-03-C5 cells [1]; increasing concentrations", "result": "declines"}, {"measurement": "histone-associated DNA fragments", "setting": "hOB-03-C5 cells [2]", "result": "resulted in the generation of histone-associated DNA fragments"}, {"measurement": "β-catenin protein levels", "setting": "β-catenin", "result": "down-regulated"}]}
